# Test results from PubChem BioAssay (NCI).
#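 GI50 is the concentration that inhibits growth by half. The concentration for full growth arrest is given as TGI.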
# How the values were obtained:
# Assay in all cases: NCI-60 cell line screen, 384-well format
# [1] = tested on: 786-0 renal
# [2] = tested on: A498 renal
# [3] = tested on: A549 NSCLC
# [4] = tested on: ACHN renal
# [5] = tested on: BT-549 breast
# [6] = tested on: CAKI-1 renal
# [7] = tested on: CCRF-CEM leukemia
# [8] = tested on: COLO 205 colon
# [9] = tested on: DU-145 prostate
# [10] = tested on: HCC-2998 colon
# [11] = tested on: HCT-116 colon
# [12] = tested on: HCT-15 colon
# [13] = tested on: HL-60(TB) leukemia
# [14] = tested on: HOP-62 NSCLC
# [15] = tested on: HOP-92 NSCLC
# [16] = tested on: HT29 colon
# [17] = tested on: IGROV1 ovarian
# [18] = tested on: K-562 leukemia
# [19] = tested on: KM12 colon
# [20] = tested on: LOX IMVI melanoma
# [21] = tested on: M14 melanoma
# [22] = tested on: MALME-3M melanoma
# [23] = tested on: MCF7 breast
# [24] = tested on: MDA-MB-231 breast
# [25] = tested on: MDA-MB-435 melanoma
# [26] = tested on: MDA-MB-468 breast
# [27] = tested on: MOLT-4 leukemia
# [28] = tested on: NCI-H226 lung
# [29] = tested on: NCI-H23 lung
# [30] = tested on: NCI-H322M lung
# [31] = tested on: NCI-H460 NSCLC
# [32] = tested on: NCI-H522 lung
# [33] = tested on: NCI/ADR-RES ovarian
# [34] = tested on: OVCAR-3 ovarian
# [35] = tested on: OVCAR-4 ovarian
# [36] = tested on: OVCAR-5 ovarian
# [37] = tested on: OVCAR-8 ovarian
# [38] = tested on: PC-3 prostate
# [39] = tested on: RPMI-8226 leukemia
# [40] = tested on: RXF 393 renal
# [41] = tested on: SF-268 CNS
# [42] = tested on: SF-295 CNS
# [43] = tested on: SF-539 CNS
# [44] = tested on: SK-MEL-2 melanoma
# [45] = tested on: SK-MEL-28 melanoma
# [46] = tested on: SK-MEL-5 melanoma
# [47] = tested on: SK-OV-3 ovarian
# [48] = tested on: SN12C renal
# [49] = tested on: SNB-19 CNS
# [50] = tested on: SR leukemia
# [51] = tested on: SW-620 colon
# [52] = tested on: T-47D breast
# [53] = tested on: TK-10 renal
# [54] = tested on: U251 glioblastoma
# [55] = tested on: UACC-257 melanoma
# [56] = tested on: UACC-62 melanoma
# [57] = tested on: UO-31 renal
# [58] = tested on: EKVX NSCLC
# [59] = tested on: HS 578T breast
# [60] = tested on: SNB-75 CNS
smiles,measurement,setting,value
Cn1ncnc1[C@@H]1c2n[nH]c(=O)c3cc(F)cc(c23)N[C@H]1c1ccc(F)cc1,GI50,[1],> 100 µM
same,TGI,[1],> 100 µM
same,GI50,[2],> 100 µM
same,TGI,[2],> 100 µM
same,GI50,[3],> 100 µM
same,TGI,[3],> 100 µM
same,GI50,[4],> 100 µM
same,TGI,[4],> 100 µM
same,GI50,[5],> 100 µM
same,TGI,[5],> 100 µM
same,GI50,[6],> 100 µM
same,TGI,[6],> 100 µM
same,GI50,[7],40.9 µM
same,TGI,[7],> 100 µM
same,GI50,[8],> 100 µM
same,TGI,[8],> 100 µM
same,GI50,[9],> 100 µM
same,TGI,[9],> 100 µM
same,GI50,[10],43.1 µM
same,TGI,[10],> 100 µM
same,GI50,[11],74.9 µM
same,TGI,[11],> 100 µM
same,GI50,[12],> 100 µM
same,TGI,[12],> 100 µM
same,GI50,[13],> 100 µM
same,TGI,[13],> 100 µM
same,GI50,[14],> 100 µM
same,TGI,[14],> 100 µM
same,GI50,[15],> 100 µM
same,TGI,[15],> 100 µM
same,GI50,[16],> 100 µM
same,TGI,[16],> 100 µM
same,GI50,[17],> 100 µM
same,TGI,[17],> 100 µM
same,GI50,[18],> 100 µM
same,TGI,[18],> 100 µM
same,GI50,[19],> 100 µM
same,TGI,[19],> 100 µM
same,GI50,[20],> 100 µM
same,TGI,[20],> 100 µM
same,GI50,[21],> 100 µM
same,TGI,[21],> 100 µM
same,GI50,[22],> 100 µM
same,TGI,[22],> 100 µM
same,GI50,[23],> 100 µM
same,TGI,[23],> 100 µM
same,GI50,[24],> 100 µM
same,TGI,[24],> 100 µM
same,GI50,[25],> 100 µM
same,TGI,[25],> 100 µM
same,GI50,[26],57.1 µM
same,TGI,[26],> 100 µM
same,GI50,[27],11.4 µM
same,TGI,[27],24.6 µM
same,GI50,[28],> 100 µM
same,TGI,[28],> 100 µM
same,GI50,[29],> 100 µM
same,TGI,[29],> 100 µM
same,GI50,[30],> 100 µM
same,TGI,[30],> 100 µM
same,GI50,[31],17.3 µM
same,TGI,[31],> 100 µM
same,GI50,[32],97.7 µM
same,TGI,[32],> 100 µM
same,GI50,[33],> 100 µM
same,TGI,[33],> 100 µM
same,GI50,[34],> 100 µM
same,TGI,[34],> 100 µM
same,GI50,[35],> 100 µM
same,TGI,[35],> 100 µM
same,GI50,[36],> 100 µM
same,TGI,[36],> 100 µM
same,GI50,[37],> 100 µM
same,TGI,[37],> 100 µM
same,GI50,[38],> 100 µM
same,TGI,[38],> 100 µM
same,GI50,[39],78.9 µM
same,TGI,[39],> 100 µM
same,GI50,[40],52.3 µM
same,TGI,[40],> 100 µM
same,GI50,[41],> 100 µM
same,TGI,[41],> 100 µM
same,GI50,[42],> 100 µM
same,TGI,[42],> 100 µM
same,GI50,[43],> 100 µM
same,TGI,[43],> 100 µM
same,GI50,[44],> 100 µM
same,TGI,[44],> 100 µM
same,GI50,[45],> 100 µM
same,TGI,[45],> 100 µM
same,GI50,[46],> 100 µM
same,TGI,[46],> 100 µM
same,GI50,[47],> 100 µM
same,TGI,[47],> 100 µM
same,GI50,[48],> 100 µM
same,TGI,[48],> 100 µM
same,GI50,[49],> 100 µM
same,TGI,[49],> 100 µM
same,GI50,[50],2.61 µM
same,TGI,[50],11.6 µM
same,GI50,[51],70.9 µM
same,TGI,[51],> 100 µM
same,GI50,[52],> 100 µM
same,TGI,[52],> 100 µM
same,GI50,[53],> 100 µM
same,TGI,[53],> 100 µM
same,GI50,[54],> 100 µM
same,TGI,[54],> 100 µM
same,GI50,[55],> 100 µM
same,TGI,[55],> 100 µM
same,GI50,[56],> 100 µM
same,TGI,[56],> 100 µM
same,GI50,[57],> 100 µM
same,TGI,[57],> 100 µM
O=P1(NCCCl)OCCCN1CCCl (centres undefined),GI50,[1],> 100 µM
same,TGI,[1],> 100 µM
same,GI50,[2],> 100 µM
same,TGI,[2],> 100 µM
same,GI50,[3],> 100 µM
same,TGI,[3],> 100 µM
same,GI50,[4],> 100 µM
same,TGI,[4],> 100 µM
same,GI50,[5],> 100 µM
same,TGI,[5],> 100 µM
same,GI50,[6],> 100 µM
same,TGI,[6],> 100 µM
same,GI50,[7],> 100 µM
same,TGI,[7],> 100 µM
same,GI50,[9],> 100 µM
same,TGI,[9],> 100 µM
same,GI50,[58],> 100 µM
same,TGI,[58],> 100 µM
same,GI50,[11],> 100 µM
same,TGI,[11],> 100 µM
same,GI50,[12],> 100 µM
same,TGI,[12],> 100 µM
same,GI50,[13],> 100 µM
same,TGI,[13],> 100 µM
same,GI50,[14],> 100 µM
same,TGI,[14],> 100 µM
same,GI50,[15],> 100 µM
same,TGI,[15],> 100 µM
same,GI50,[59],> 100 µM
same,TGI,[59],> 100 µM
same,GI50,[16],> 100 µM
same,TGI,[16],> 100 µM
same,GI50,[17],> 100 µM
same,TGI,[17],> 100 µM
same,GI50,[18],> 100 µM
same,TGI,[18],> 100 µM
same,GI50,[19],> 100 µM
same,TGI,[19],> 100 µM
same,GI50,[20],> 100 µM
same,TGI,[20],> 100 µM
same,GI50,[21],> 100 µM
same,TGI,[21],> 100 µM
same,GI50,[22],> 100 µM
same,TGI,[22],> 100 µM
same,GI50,[23],> 100 µM
same,TGI,[23],> 100 µM
same,GI50,[24],> 100 µM
same,TGI,[24],> 100 µM
same,GI50,[25],> 100 µM
same,TGI,[25],> 100 µM
same,GI50,[26],> 100 µM
same,TGI,[26],> 100 µM
same,GI50,[27],> 100 µM
same,TGI,[27],> 100 µM
same,GI50,[28],> 100 µM
same,TGI,[28],> 100 µM
same,GI50,[29],> 100 µM
same,TGI,[29],> 100 µM
same,GI50,[30],> 100 µM
same,TGI,[30],> 100 µM
same,GI50,[32],> 100 µM
same,TGI,[32],> 100 µM
same,GI50,[33],> 100 µM
same,TGI,[33],> 100 µM
same,GI50,[34],> 100 µM
same,TGI,[34],> 100 µM
same,GI50,[35],> 100 µM
same,TGI,[35],> 100 µM
same,GI50,[36],> 100 µM
same,TGI,[36],> 100 µM
same,GI50,[37],> 100 µM
same,TGI,[37],> 100 µM
same,GI50,[38],> 100 µM
same,TGI,[38],> 100 µM
same,GI50,[39],> 100 µM
same,TGI,[39],> 100 µM
same,GI50,[40],> 100 µM
same,TGI,[40],> 100 µM
same,GI50,[41],> 100 µM
same,TGI,[41],> 100 µM
same,GI50,[42],> 100 µM
same,TGI,[42],> 100 µM
same,GI50,[43],> 100 µM
same,TGI,[43],> 100 µM
same,GI50,[44],> 100 µM
same,TGI,[44],> 100 µM
same,GI50,[45],> 100 µM
same,TGI,[45],> 100 µM
same,GI50,[47],> 100 µM
same,TGI,[47],> 100 µM
same,GI50,[48],> 100 µM
same,TGI,[48],> 100 µM
same,GI50,[49],> 100 µM
same,TGI,[49],> 100 µM
same,GI50,[60],> 100 µM
same,TGI,[60],> 100 µM
same,GI50,[51],> 100 µM
same,TGI,[51],> 100 µM
same,GI50,[52],> 100 µM
same,TGI,[52],> 100 µM
same,GI50,[53],> 100 µM
same,TGI,[53],> 100 µM
same,GI50,[54],> 100 µM
same,TGI,[54],> 100 µM
same,GI50,[55],> 100 µM
same,TGI,[55],> 100 µM
same,GI50,[56],> 100 µM
same,TGI,[56],> 100 µM
same,GI50,[57],> 100 µM
same,TGI,[57],> 100 µM
